Earlier results in patent US11865207B2, “Topical pharmaceutical composition for treatment of anal fissures and hemorrhoids” (Ferring B.V., priority 2018, dated 2024).

Tested on: anal fissures
Details: 2% topical diltiazem in an ointment

SMILES: COc1ccc([C@@H]2Sc3ccccc3N(CCN(C)C)C(=O)[C@@H]2OC(C)=O)cc1 [diltiazem]
- healing rate: 75%
